Where no end group is shown, it is not given here. [ ]: non-standard residue; d: D form. pY = N[C@@H](Cc1ccc(OP(=O)(O)O)cc1)C(=O)O
Legend:
[1] = tested on: autophosphorylation (phosphotyrosine); assay: In vitro kinase library screen: autophosphorylation; type: biochemical
Description: (§1) Proteins were produced from DNA plasmids of Mock Luciferase, Promega, tyrosine kinase clone Spleen Tyrosine kinase (SYK, IMAGE ID# 3870426) and Eph receptor-A7 (EphA7, IMAGE ID# 3991628) (Incyte Genomics, CA) and immobilized on streptavidin or avidin coated NPT-IPR plates as described in the Example 7. To promote autophosphorylation in these immobilized and purified proteins, Mn++ ions were added in a 50 μl reaction containing 5 mM MgCl2, 5 mM MnCl2, 100 μM ATP, 25 mM Tris-HCl buffer pH 7.4, 0.05 mM Na3VO4, 0.004% TritonX-100, 2 mM DTT and EDTA-free protease inhibitor (Roche Molecular Biochemicals). This mixture was incubated with shaking at room temperature overnight to allow autophosphorylation. Following this incubation, wells were washed 2 times with TT-buffer and 2 times with water. Following this step, 50 ng Sulfo-TAG labeled anti-phosphotyrosine in buffer containing 25 mM Tris-HCl buffer pH 7.4, 5 mM MgCl2, 0.05 mM Na3VO4, 0.004% TritonX-100, 2 mM DTT and 0.05% IgG in a final volume of 50 μl was added followed by incubation at room temperature for 45 min. The unbound reagents were removed by one time washing with water, and the TAG label was detected in presence of 150 μl IPR assay buffer (0.4 mM Gly—Gly buffer, pH 7.8, 1 mM EDTA, 0.1 M TPA). The ECL signals were measured using an imaging plate reader.
(§2) Proteins were produced in an in vitro transcription and translation reaction as described in the Materials and Methods. […] The reaction was stopped by mixing with BB2 buffer. Biotinylated proteins from 50 μl of the mixture (representing 0.5 μl to 5 μl of TnT reaction) were immobilized onto streptavidin or avidin coated NPT-IPR plates by shaking at room temperature for 45 min. The activity of the immobilized protein towards pEY or autophosphorylation was further assayed by the methods described in examples 7 and 8.

[2] = tested on: autophosphorylation (phosphotyrosine); assay: Autophosphorylation activity assay of immobilized in vitro translated protein; type: biochemical; details: 0.5 μl of TnT reaction
Description: as §1

pEY = assay: In vitro kinase library screen: activity towards pEY; type: biochemical; details: 5 ul of expressed protein
Description: (§3) Proteins were produced in an in vitro transcription and translation reaction. […] The unbound components of the reaction containing endogenous kinases were removed by three washes with TT-buffer (25 mM Tris-HCl buffer pH 7.4 and 0.004% Triton), two five minutes washings with high-salt wash buffer (25 mM Tris-HCl buffer pH 7.4, 0.004% Triton, 1M NaCl and 5 mM DTT) and 3 more washes with TT-buffer. To these immobilized and purified proteins a tyrosine kinase substrate, 5 nM pEY (poly Glu-Tyr, Sigma, MO), was added in a 50 μl reaction solution containing 5 mM MgCl2, 5 mM MnCl2, 100 μM ATP, 25 mM Tris-HCl buffer pH 7.4, 0.05 mM Na3VO4, 0.004% TritonX-100, 2 mM DTT and EDTA-free protease inhibitor (Roche Molecular Biochemicals). This mixture was incubated with shaking at room temperature overnight to allow phosphorylation of the pEY substrate by the immobilized kinases. Following this incubation, 45 μl of this mixture was transferred to a streptavidin or avidin-coated NPT IPR plate coated with biotinylated anti-phosphotyrosine antibody (PY20, Zymed labs, CA) followed by incubation for 30 minutes at room temperature to allow the binding of the phosphorylated pEY substrate to the PY20 coated NPT plate. Following this binding step, 50 ng Sulfo-TAG labeled anti-phosphotyrosine in buffer containing 25 mM Tris-HCl buffer pH 7.4, 5 mM MgCl2, 0.05 mM Na3VO4, 0.004% TritonX-100, 2 mM DTT and 0.05% IgG was added followed by incubation at room temperature for 30 mm. The unbound reagents were removed by one time washing with water, and the TAG label was detected in presence of 150 μl IPR assay buffer (0.4 mM Gly-Gly buffer, pH 7.8, 1 mM EDTA, 0.1 M TPA). The ECL signals were measured using an imaging plate reader.
as §2

SYK [3] = biological target: T1, SYK (Homo sapiens, UniProt P43405); assay: Kinase inhibitor profiling, autophosphorylation; type: biochemical
T1 construct: autophosphorylation activity from full-length clones Spleen Tyrosine Kinase (SYK) and Eph receptor-A7 (EphA7); host or cells: rabbit reticulocyte lysate, TnT coupled in vitro transcription/translation (cell-free)
Description: as §1
(§4) Proteins were produced using 100 ng of plasmid DNA Mock (Luciferase, Promega) or tyrosine kinases (Fert2 IMAGE ID # 4485050, FGFR1 IMAGE ID # 4037899, Fgfr2 IMAGE ID # 2654352, Src IMAGE ID # 3156400, BMX IMAGE ID # 3919253, LCK IMAGE ID # 4191610, Epha7 IMAGE ID # 3991628, Ephb4 IMAGE ID # 4013934, Tek IMAGE ID # 3482498, HCK IMAGE ID # 4778819, BTK IMAGE ID # 4478463, CSK IMAGE ID # 4398416, SYK IMAGE ID # 3870426, FGR IMAGE ID # 4419973, PTK2B IMAGE ID # 4339456, FRK(IMAGE ID # 4515877, Kit IMAGE ID # 2644960, Fgfr-4 IMAGE ID # 4239139, NTRK3 IMAGE ID # 4181574, Kdr IMAGE ID # 4238984, Incyte Genomics, CA) and immobilized on SA or avidin coated NPT-IPR plates as described in previous examples. The unbound components of the translation reaction (including any endogenous kinases) were removed by 3 washes with TT-buffer (25 mM Tris-HCl buffer pH 7.4 and 0.004% Triton), two five minutes washes with high-salt wash buffer (25 mM Tris-HCl buffer pH 7.4, 0.004% Triton, 1M NaCl and 5 mM DTT) and 3 washes with TT-buffer. […] The mixture was incubated at room temperature for 10 mm before starting the kinase reaction by adding 25 μl of 200 μM ATP in buffer A. This mixture was incubated with intermittent shaking at room temperature for 2 hours to overnight to allow (a) phosphorylation of the pEY substrate and (b) autophosphorylation of the immobilized kinases. Autophosphorylation and phosphorylation of the pEY was measured as described in Examples 7 and 8.
(§5) The ECL signal in control wells produced by tyrosine kinases was compared to the wells containing inhibitor compounds. The signal produced from Mock was negligible.

PTK2B [4] = biological target: T2, PTK2B (Homo sapiens, UniProt Q14289); assay: Kinase inhibitor profiling, autophosphorylation; type: biochemical
T2 construct: specificity data for proteins generated from a library of eighteen full-length clones; host or cells: rabbit reticulocyte lysate, TnT coupled in vitro transcription/translation (cell-free)
Description: as §1, §4, §5

Fgfr4 [5] = biological target: T3, Fgfr4 (Mus musculus, UniProt Q03142); assay: Kinase inhibitor profiling, autophosphorylation; type: biochemical
T3 construct: specificity data for proteins generated from a library of eighteen full-length clones; biotin on random lysines (biotin-Lys-tRNA); host or cells: rabbit reticulocyte lysate, coupled transcription/translation (TnT, Promega)
Description: as §1, §4, §5

Kit [6] = biological target: T4, Kit (Mus musculus, UniProt P05532); assay: Kinase inhibitor profiling, autophosphorylation; type: biochemical
T4 construct: specificity data for proteins generated from a library of eighteen full-length clones; biotin on random lysines (biotin-Lys-tRNA); host or cells: rabbit reticulocyte lysate, coupled transcription/translation (TnT, Promega)
Description: as §1, §4, §5

CSK = biological target: T5, CSK (Homo sapiens, UniProt P41240); assay: Kinase inhibitor profiling, pEY phosphorylation; type: biochemical
T5 construct: specificity data for proteins generated from a library of eighteen full-length clones; host or cells: rabbit reticulocyte lysate, TnT coupled in vitro transcription/translation (cell-free)
Description: as §3, §4, §5

HCK = biological target: T6, HCK (Homo sapiens, UniProt P08631); assay: Kinase inhibitor profiling, pEY phosphorylation; type: biochemical
T6 construct: specificity data for proteins generated from a library of eighteen full-length clones; host or cells: rabbit reticulocyte lysate, TnT coupled in vitro transcription/translation (cell-free)
Description: as §3, §4, §5

SYK [7] = biological target: T1, SYK; assay: Kinase inhibitor profiling, pEY phosphorylation; type: biochemical
Description: as §3, §4, §5

PTK2B [8] = biological target: T2, PTK2B; assay: Kinase inhibitor profiling, pEY phosphorylation; type: biochemical
Description: as §3, §4, §5

Fgfr4 [9] = biological target: T3, Fgfr4; assay: Kinase inhibitor profiling, pEY phosphorylation; type: biochemical
Description: as §3, §4, §5

Kit [10] = biological target: T4, Kit; assay: Kinase inhibitor profiling, pEY phosphorylation; type: biochemical
Description: as §3, §4, §5

FRK = assay: Kinase inhibitor profiling, autophosphorylation; type: biochemical
Description: as §1, §4, §5

[11] = tested on: tyrosine kinases reported to be the target of each inhibitor; details: read-out: reported IC50 concentration (1× concentration); for the kinase reported to be the target of the inhibitor; cited from earlier work
EGFR = biological target: T7, EGFR (Homo sapiens, UniProt P00533); assay: EGFR binding assay, bound EGFR detected by its tyrosine kinase activity towards pEY; details: Grb2 plasmid, +EGFR, in presence of the peptide
T7 construct: autophosphorylated tyrosines (self-phosphorylated with ATP before use); purchased Sigma Chemical Co, MO
Description: Proteins were produced in an in vitro transcription and translation reaction using 40–100 ng of plasmid DNA. […] The unbound components of the reaction containing endogenous kinases were removed by three washes with TT-buffer (25 mM Tris-HCl buffer pH 7.4 and 0.004% Triton), two five minutes washings with high-salt wash buffer (25 mM Tris-HCl buffer pH 7.4, 0.004% Triton, 1M NaCl and 5 mM DTT) and 3 more washes with TT-buffer. […] The unbound EGFR was washed by 4 times washing with TT-buffer (25 mM Tris-HCl buffer pH 7.4 and 0.004% Triton). The amount of EGFR bound to the reticulocyte lysate expressed protein was determined by detecting the kinase activity of EGFR. A tyrosine kinase substrate, 5 nM pEY (poly Glu-Tyr, Sigma, MO) was added in a 50 μl reaction containing 5 mM MgCl2, 5 mM MnCl2, 100 μM ATP, 25 mM Tris-HCl buffer pH 7.4, 0.05 mM Na3VO4, 0.004% TritonX-100, 2 mM DTT and EDTA-free protease inhibitor (Roche Molecular Biochemicals). This mixture was incubated with shaking at room temperature for 1 or 12 hours to allow phosphorylation of the pEY substrate by the EGFR. […]
The unbound reagents were removed by one time washing with TT-buffer (25 mM Tris-HCl buffer pH 7.4 and 0.004% Triton), and the TAG label was detected in presence of 150 μl IPR assay buffer (0.4 mM Gly-Gly buffer, pH 7.8, 1 mM EDTA, 0.1 M TPA). The ECL signals were measured using an imaging plate reader.

T4 sequence (P05532 25-979): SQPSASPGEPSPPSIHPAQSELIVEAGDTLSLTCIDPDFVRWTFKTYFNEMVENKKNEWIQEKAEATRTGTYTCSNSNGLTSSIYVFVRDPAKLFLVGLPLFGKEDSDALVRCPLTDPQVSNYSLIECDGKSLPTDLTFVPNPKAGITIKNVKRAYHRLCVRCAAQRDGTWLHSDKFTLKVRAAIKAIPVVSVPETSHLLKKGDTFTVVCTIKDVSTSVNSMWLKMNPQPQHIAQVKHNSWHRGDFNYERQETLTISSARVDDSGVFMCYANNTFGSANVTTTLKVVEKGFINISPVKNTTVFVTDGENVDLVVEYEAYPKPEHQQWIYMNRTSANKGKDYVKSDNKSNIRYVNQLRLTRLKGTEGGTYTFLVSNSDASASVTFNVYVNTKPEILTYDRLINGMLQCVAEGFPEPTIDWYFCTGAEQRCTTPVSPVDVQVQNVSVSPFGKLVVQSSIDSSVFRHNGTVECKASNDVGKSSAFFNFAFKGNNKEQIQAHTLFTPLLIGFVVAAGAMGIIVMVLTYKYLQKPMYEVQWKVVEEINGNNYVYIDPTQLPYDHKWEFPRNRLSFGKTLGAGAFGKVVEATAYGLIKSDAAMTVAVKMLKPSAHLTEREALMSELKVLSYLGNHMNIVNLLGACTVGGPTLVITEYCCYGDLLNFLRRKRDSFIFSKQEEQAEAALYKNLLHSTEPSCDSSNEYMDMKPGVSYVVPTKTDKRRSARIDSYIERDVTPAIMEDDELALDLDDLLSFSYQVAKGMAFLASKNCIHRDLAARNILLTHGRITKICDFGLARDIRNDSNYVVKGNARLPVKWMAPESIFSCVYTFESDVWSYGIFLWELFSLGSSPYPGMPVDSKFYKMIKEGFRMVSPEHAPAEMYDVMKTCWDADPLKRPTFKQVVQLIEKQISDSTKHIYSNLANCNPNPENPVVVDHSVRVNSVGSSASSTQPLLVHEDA
T2 sequence (Q14289 whole entry): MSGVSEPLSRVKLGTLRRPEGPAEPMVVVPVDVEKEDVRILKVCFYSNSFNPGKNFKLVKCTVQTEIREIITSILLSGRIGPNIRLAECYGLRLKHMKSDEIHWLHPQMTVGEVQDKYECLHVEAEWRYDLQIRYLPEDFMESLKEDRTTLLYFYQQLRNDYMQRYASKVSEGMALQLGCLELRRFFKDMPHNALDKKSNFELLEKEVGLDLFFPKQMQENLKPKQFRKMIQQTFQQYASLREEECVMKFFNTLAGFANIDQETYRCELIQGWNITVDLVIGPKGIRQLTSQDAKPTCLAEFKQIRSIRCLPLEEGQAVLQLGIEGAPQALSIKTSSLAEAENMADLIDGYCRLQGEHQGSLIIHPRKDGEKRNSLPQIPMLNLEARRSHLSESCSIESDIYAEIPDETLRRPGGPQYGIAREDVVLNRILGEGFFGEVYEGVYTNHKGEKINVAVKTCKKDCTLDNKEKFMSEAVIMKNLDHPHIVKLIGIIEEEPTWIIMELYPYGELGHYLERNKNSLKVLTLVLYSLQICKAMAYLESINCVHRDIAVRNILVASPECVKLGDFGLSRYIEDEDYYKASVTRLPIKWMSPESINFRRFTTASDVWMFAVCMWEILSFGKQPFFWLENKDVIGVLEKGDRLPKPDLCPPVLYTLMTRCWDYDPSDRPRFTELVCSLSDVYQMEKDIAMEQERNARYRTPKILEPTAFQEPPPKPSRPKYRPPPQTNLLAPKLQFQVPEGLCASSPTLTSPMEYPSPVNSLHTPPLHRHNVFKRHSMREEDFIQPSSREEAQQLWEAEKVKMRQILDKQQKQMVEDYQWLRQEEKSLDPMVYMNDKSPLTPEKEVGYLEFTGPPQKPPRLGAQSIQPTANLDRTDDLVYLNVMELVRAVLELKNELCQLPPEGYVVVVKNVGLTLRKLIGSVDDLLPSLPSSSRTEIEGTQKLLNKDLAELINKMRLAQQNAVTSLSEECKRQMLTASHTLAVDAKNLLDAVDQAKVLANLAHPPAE
T3 sequence (Q03142 17-799): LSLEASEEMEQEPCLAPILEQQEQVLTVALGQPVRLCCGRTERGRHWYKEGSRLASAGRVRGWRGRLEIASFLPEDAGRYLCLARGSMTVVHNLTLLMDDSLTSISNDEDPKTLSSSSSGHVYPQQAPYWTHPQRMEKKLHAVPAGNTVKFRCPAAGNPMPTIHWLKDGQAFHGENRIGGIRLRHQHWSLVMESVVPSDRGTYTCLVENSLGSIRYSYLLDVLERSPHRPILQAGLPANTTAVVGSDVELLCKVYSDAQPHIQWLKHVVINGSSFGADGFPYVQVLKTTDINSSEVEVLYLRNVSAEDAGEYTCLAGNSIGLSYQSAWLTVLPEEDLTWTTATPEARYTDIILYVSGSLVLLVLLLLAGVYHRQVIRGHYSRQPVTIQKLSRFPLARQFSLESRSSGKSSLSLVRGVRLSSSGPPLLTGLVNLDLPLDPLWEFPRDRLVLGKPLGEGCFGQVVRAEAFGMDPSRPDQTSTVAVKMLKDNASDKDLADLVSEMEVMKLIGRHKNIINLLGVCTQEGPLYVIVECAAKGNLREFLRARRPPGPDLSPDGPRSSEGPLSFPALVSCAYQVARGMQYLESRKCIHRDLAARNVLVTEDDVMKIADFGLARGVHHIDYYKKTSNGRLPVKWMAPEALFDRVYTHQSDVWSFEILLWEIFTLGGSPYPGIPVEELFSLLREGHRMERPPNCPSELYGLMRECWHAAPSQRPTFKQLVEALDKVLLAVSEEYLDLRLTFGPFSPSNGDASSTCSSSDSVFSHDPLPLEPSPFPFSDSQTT
T5 sequence (P41240 whole entry): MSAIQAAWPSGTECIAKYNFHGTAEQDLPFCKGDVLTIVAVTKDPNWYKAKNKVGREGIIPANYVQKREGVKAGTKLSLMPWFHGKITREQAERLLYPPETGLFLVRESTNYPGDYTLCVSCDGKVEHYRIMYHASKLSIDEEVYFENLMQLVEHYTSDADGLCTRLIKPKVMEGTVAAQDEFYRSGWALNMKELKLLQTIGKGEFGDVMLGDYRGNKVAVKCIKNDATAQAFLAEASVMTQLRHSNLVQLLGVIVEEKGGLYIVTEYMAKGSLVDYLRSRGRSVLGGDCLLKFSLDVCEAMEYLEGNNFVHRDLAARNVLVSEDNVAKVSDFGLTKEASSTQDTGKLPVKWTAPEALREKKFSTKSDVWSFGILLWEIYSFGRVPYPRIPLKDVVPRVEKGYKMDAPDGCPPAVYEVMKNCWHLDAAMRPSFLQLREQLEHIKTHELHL
T6 sequence (P08631 whole entry): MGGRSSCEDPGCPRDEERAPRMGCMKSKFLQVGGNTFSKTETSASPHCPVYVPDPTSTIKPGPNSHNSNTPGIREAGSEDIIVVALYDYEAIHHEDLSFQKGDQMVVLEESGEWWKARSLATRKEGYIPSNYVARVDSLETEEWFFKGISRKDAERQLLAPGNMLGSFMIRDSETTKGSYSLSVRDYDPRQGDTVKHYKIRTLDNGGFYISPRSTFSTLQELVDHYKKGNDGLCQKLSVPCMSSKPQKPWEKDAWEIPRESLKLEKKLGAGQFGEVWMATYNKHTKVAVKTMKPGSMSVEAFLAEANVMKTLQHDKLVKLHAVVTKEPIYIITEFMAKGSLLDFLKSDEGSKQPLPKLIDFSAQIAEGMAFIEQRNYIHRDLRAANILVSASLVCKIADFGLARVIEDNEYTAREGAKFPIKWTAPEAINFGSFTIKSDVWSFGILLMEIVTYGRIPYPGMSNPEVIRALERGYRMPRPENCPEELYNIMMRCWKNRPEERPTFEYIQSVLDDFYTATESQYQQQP

Compound: 3991628: IMAGE clone protein: EPHA7, Eph receptor A7 [compound 3991628]
- ECL signal [1]: 115,662
- ECL signal [2]: 39,967
- fold higher ECL signal than background produced by Mock (Luciferase) [2]: ~47 fold
- HTS signal (pEY): 24,930

Compound: O=C1Nc2ccccc2/C1=C/c1ccc[nH]1 [Oxindole 1]
- Inhibition specificity towards Autophosphorylation at 10X IC50, SYK (SYK [3]): L (low inhibition (“L”=between 50–75% of the activity remaining))
- Inhibition specificity towards Autophosphorylation at 10X IC50, PTK2B (PTK2B [4]): L (low inhibition (“L”=between 50–75% of the activity remaining))
- Inhibition specificity towards Autophosphorylation at 10X IC50, Fgfr4 (Fgfr4 [5]): L (low inhibition (“L”=between 50–75% of the activity remaining))
- Inhibition specificity towards Autophosphorylation at 10X IC50, Kit (Kit [6]): M (medium inhibition (“M”=between 25 to 50% of the activity remaining))
- Inhibition specificity towards pEY phosphorylation at 10X IC50, CSK (CSK): M (medium inhibition (“M”=between 25 to 50% of the activity remaining))
- Inhibition specificity towards pEY phosphorylation at 10X IC50, HCK (HCK): L (low inhibition (“L”=between 50–75% of the activity remaining))
- Inhibition specificity towards pEY phosphorylation at 10X IC50, SYK (SYK [7]): L (low inhibition (“L”=between 50–75% of the activity remaining))
- Inhibition specificity towards pEY phosphorylation at 10X IC50, PTK2B (PTK2B [8]): M (medium inhibition (“M”=between 25 to 50% of the activity remaining))
- Inhibition specificity towards pEY phosphorylation at 10X IC50, Fgfr4 (Fgfr4 [9]): M (medium inhibition (“M”=between 25 to 50% of the activity remaining))
- Inhibition specificity towards pEY phosphorylation at 10X IC50, Kit (Kit [10]): H (high inhibition (“H”=less than 25% of the activity remaining))

Compound: CC(C)(C)n1nc(-c2ccc(Cl)cc2)c2c(N)ncnc21 [PP2]
- Inhibition specificity towards Autophosphorylation at 10X IC50, FRK (FRK): L (low inhibition (“L”=between 50–75% of the activity remaining))
- Inhibition specificity towards pEY phosphorylation at 10X IC50, Kit (Kit [10]): L (low inhibition (“L”=between 50–75% of the activity remaining))
- IC50 [11]: 4 nM

Compound: LPVPE(p)YINQSVPKRPAGSVC (LPVPE[pY]INQSVPKRPAGSVC) [Phosphopeptide]
- ECL signal (EGFR): 7,348

Compound: Peptide: un-phosphorylated form of the EGFR 1063–1081 peptide (SEQ ID NO: 8) (LPVPEYINQSVPKRPAGSVC; Synthetic Fragment of EGFR-Y1068)
- ECL signal (EGFR): 34,055
